{
  "source": "patent US20230393140A1",
  "about": "“BINDING ASSAYS INVOLVING A PLURALITY OF SYNTHETIC COMPOUNDS, TARGETS, AND COUNTER TARGETS” (SRI International, priority 2020, published 2023)",
  "key": {"K-Ras": {"target": "T1, K-Ras (Homo sapiens, UniProt P01116, G12V)", "T1 construct": "purchased Cytoskeleton Inc. CS-RS04", "test": "MST binding affinity of resynthesized NNP hits to K-Ras", "method_in_brief": "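K-Ras G12V was GTP-loaded (EDTA exchange, 750 μM GTP, 2 h at 30° C, then MgCl2) and labeled with maleimide-647 dye. MST was run at room temperature in 20 mM HEPES pH 7.4, 150 mM NaCl, 10 mM MgCl2, 0.05% Tween-20, 1 mM DTT. Incubations lasted 15, 30 and 45 min; triplicate data fitted for affinity.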"}, "K-Ras-Raf interaction": {"target": "T2, K-Ras-Raf interaction (Homo sapiens, UniProt P01116, G12V)", "T2 construct": "purchased Cytoskeleton Inc. (K-Ras); Jena Bioscience (Raf-RBD) CS-RS04; PR-305", "test": "K-Ras/Raf inhibition assay (MST competition binding)", "conditions": "NNP at 1 μM pre-incubated with K-Ras 15 minutes at room temperature, then Raf titration", "description": "This was tested on an MST competition binding assay (see FIG. 11A).\nLoading was performed according to the following protocol: The 200 μM stock solution of the target protein was diluted to 10 μM in 20 mM HEPES pH 8.0, 150 mM NaCl, 10 mM MgCl2, 1 mM TCEP, 0.05% Tween-20 (total volume 110 μL). 10 μL were set aside for later labeling quality control. EDTA pH 8.0 (stock concentration 10 mM) was added to the protein solution to a final concentration of 80 μM. GTP (stock concentration 50 mM) was added to the protein solution to a final concentration of 750 μM. The solution was incubated at 30° C. for 2 hours (PCR tube) and then placed on ice for 2 minutes. MgCl2 was added to the protein solution to a final concentration of 100 mM. The resulting protein solution was buffer exchanged into the buffer required in the labeling kit for labeling. […] All the other target molecules (TNFα, IL-6, IL-6R and ASGPR) were used as received without any additional treatment.\nLoading of K-Ras with the GTP was performed according to the protocol detailed above (Activation of K-Ras by GTP loading). After the GTP loading the resulting protein solution was buffer exchanged into 100 mM HEPES pH 6.5, 5 mM MgCl2, 50 mM NaCl, 1 mM TCEP."}, "[1]": {"target": "T3, K-Ras-CF555 versus Raf-AF647 (Homo sapiens, UniProt P01116, G12V)", "T3 construct": "purchased Cytoskeleton Inc. (K-Ras); Jena Bioscience (Raf-RBD) CS-RS04; PR-305", "test": "On-bead FAST/ADM competition screen, MFI of target and counter target", "type": "binding", "conditions": "hit bead in primary competition screen"}, "cRaf/K-Ras (G12V) PPI": {"target": "T4, cRaf/K-Ras (G12V) PPI (Homo sapiens, UniProt P01116, G12V)", "T4 construct": "b-Kras G12V (GppNHp) (aa 2-169); biotin (b-", "test": "K-Ras-cRaf HTRF-based PPI profiling;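 as to blank corrected HTRF: background is the signal of wells with all components except cRaf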", "type": "biochemical", "conditions": "for blank corrected HTRF: raw data, compounds without fluorescein", "method_in_brief": "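K-Ras(G12V) pre-incubated 30 min at room temperature with compound in 20 mM HEPES pH 7.4, 150 mM NaCl, 5 mM MgCl2, 1 mM DTT, 0.005% NP40, 1% DMSO, then cRaf added. HTRF read via anti-GST-Tb cryptate/streptavidin-XL665. % binding is relative to DMSO controls; curves fitted only if activity at top concentration fell below 65%.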"}, "biotinylated GST": {"system": "biotinylated GST", "test": "Interference check with biotinylated GST and detection mix", "description": "Table 20 below provides an interference check on the synthetic compounds using biotinylated GST, which was used with the detection mix to check for compound effect on fluorescence."}, "[2]": {"conditions": "read-out: KD of K-Ras hits by MST"}},
  "note": "Like-named read-outs stand apart in the source and are kept apart here. Marks after values point to notes of the source that are not given here. Numbered stars: 1 amine (or outer) side, 2 acyl side, 3 side chain; on linkers, the order of the positions; unused ones are H or OH. Square brackets hold non-standard residues; d marks the D form. Peptide text beside a SMILES is read from it. * marks the point of attachment. 5FAM = O=C1OC2(c3ccc(O)cc3Oc3cc(O)ccc32)c2ccc(C(=O)*)cc21; NHCH2C6H4(4-CH2CONH2) = NC(=O)Cc1ccc(CN*)cc1; X1 = O=C(Cc1ccc(CN[*:1])cc1)[*:2]",
  "data": [
    {"smiles": "CC(C)C[C@@H](NC(=O)c1ccc2c(c1)C(=O)OC21c2ccc(O)cc2Oc2cc(O)ccc21)C(=O)N1CCC[C@@H]1C(=O)N[C@H](CCC(=O)O)C(=O)N[C@H](CO)C(=O)N[C@@H](Cc1ccccc1)C(=O)NCc1ccc(CC(=O)NCC(=O)N[C@@H](C(=O)N2CCC[C@@H]2C(=O)N[C@H](CCCNC(=N)N)C(=O)N[C@@H](C)C(=O)NCc2ccc(CC(=O)N3CCC[C@@H]3C(=O)N[C@H](CO)C(=O)N[C@H](CCC(=O)O)C(=O)N[C@H](CCCNC(=N)N)C(=O)NCC(=O)NCc3ccc(CC(=O)N4CCC[C@@H]4C(=O)N[C@H](CCCCN)C(=O)N[C@H](Cc4ccc(O)cc4)C(=O)N[C@H](CCCNC(=N)N)C(=O)N[C@@H](Cc4ccccc4)C(=O)NCc4ccc(CC(=O)N[C@H](CCCNC(=N)N)C(=O)N[C@H](Cc5ccc(O)cc5)C(=O)N[C@@H](C(=O)N[C@H](CCC(=O)O)C(=O)N[C@@H](C)C(=O)NCc5ccc(CC(=O)N[C@H](Cc6ccc(O)cc6)C(=O)N6CCC[C@@H]6C(=O)N[C@H](CCCNC(=N)N)C(=O)N[C@H](CCC(=O)O)C(=O)NCC(=O)NCc6ccc(CC(N)=O)cc6)cc5)[C@H](C)O)cc4)cc3)cc2)C(C)C)cc1", "note": "[KRAS-1-4] (5FAM-[dL][dP][dE][dS]F[X1]G[dV][dP][dR]A[X1][dP][dS][dE][dR]G[X1][dP][dK][dY][dR]F[X1][dR][dY][dT][dE]A[X1][dY][dP][dR][dE]G-{NHCH2C6H4(4-CH2CONH2)})", "values": [
      {"measurement": "Kd", "setting": "K-Ras; [2]", "result": 36, "unit": "nM"},
      {"measurement": "Inhibition of K-Ras-Raf PPI", "setting": "K-Ras-Raf interaction", "result": "no inhibition"},
      {"measurement": "MFI ratio of the target (K-Ras-CF555) to the counter target (Raf-AF647) for the hit beads", "setting": "[1]", "result": 1.89}
    ]},
    {"smiles": "CC(C)C[C@H](NC(=O)[C@@H](C)NC(=O)[C@@H](CCC(=O)O)NC(=O)[C@H](NC(=O)[C@@H](CCCCN)NC(=O)Cc1ccc(CNC(=O)[C@H](C)NC(=O)[C@@H](CCCNC(=N)N)NC(=O)[C@H]2CCCN2C(=O)[C@H](NC(=O)CNC(=O)Cc2ccc(CNC(=O)[C@H](Cc3ccccc3)NC(=O)[C@@H](CO)NC(=O)[C@@H](CCC(=O)O)NC(=O)[C@H]3CCCN3C(=O)[C@@H](CC(C)C)NC(=O)c3ccc4c(c3)C(=O)OC43c4ccc(O)cc4Oc4cc(O)ccc43)cc2)C(C)C)cc1)[C@H](C)O)C(=O)NCc1ccc(CC(=O)N[C@H](Cc2ccc(O)cc2)C(=O)N[C@@H](C(=O)N2CCC[C@@H]2C(=O)N[C@H](CCCNC(=N)N)C(=O)N[C@@H](C)C(=O)NCc2ccc(CC(=O)N3CCC[C@@H]3C(=O)NCC(=O)N[C@H](CCCNC(=N)N)C(=O)N[C@H](Cc3c[nH]c4ccccc34)C(=O)NCC(=O)NCc3ccc(CC(=O)NCC(=O)N[C@H](Cc4c[nH]c5ccccc45)C(=O)N[C@H](Cc4c[nH]cn4)C(=O)N[C@H](CCCNC(=N)N)C(=O)N[C@@H](C)C(=O)NCc4ccc(CC(N)=O)cc4)cc3)cc2)[C@H](C)O)cc1", "note": "[KRAS-1-13] (5FAM-[dL][dP][dE][dS]F[X1]G[dV][dP][dR]A[X1][dK][dT][dE][dA]L[X1][dY][dT][dP][dR]A[X1][dP]G[dR][dW]G[X1]G[dW][dH][dR]A-{NHCH2C6H4(4-CH2CONH2)})", "values": [
      {"measurement": "Kd", "setting": "K-Ras; K-Ras, compound with fluorescein on N-term, read-out: KD[nM] in MST (with fluorescein on N-term)", "result": 30, "unit": "nM"},
      {"measurement": "Kd", "setting": "K-Ras; read-out: KD (nM) [95% conf. int], MST, NNP1 library hit, target K-Ras, one-site binding model", "result": 30, "unit": "nM"},
      {"measurement": "Kd", "setting": "K-Ras; [2]", "result": 30, "unit": "nM"},
      {"measurement": "Inhibition of K-Ras-Raf PPI", "setting": "K-Ras-Raf interaction", "result": "partial inhibition"},
      {"measurement": "HillSlope", "setting": "cRaf/K-Ras (G12V) PPI; curve fit of % binding, K-Ras G12V 30 nM, GST-cRaf 10 nM", "result": "−0.821"},
      {"measurement": "blank corrected HTRF", "setting": "cRaf/K-Ras (G12V) PPI; conc. 1.00E−05", "result": 3798},
      {"measurement": "blank corrected HTRF", "setting": "cRaf/K-Ras (G12V) PPI; conc. 1.11E−06", "result": 8379},
      {"measurement": "blank corrected HTRF", "setting": "cRaf/K-Ras (G12V) PPI; conc. 1.52E−09", "result": 13665},
      {"measurement": "blank corrected HTRF", "setting": "cRaf/K-Ras (G12V) PPI; conc. 3.33E−06", "result": 3957},
      {"measurement": "blank corrected HTRF", "setting": "cRaf/K-Ras (G12V) PPI; conc. 3.70E−07", "result": 9542},
      {"measurement": "blank corrected HTRF", "setting": "cRaf/K-Ras (G12V) PPI; conc. 4.12E−08", "result": 14025},
      {"measurement": "blank corrected HTRF", "setting": "cRaf/K-Ras (G12V) PPI; conc. 4.57E−09", "result": 13413},
      {"measurement": "blank corrected HTRF", "setting": "cRaf/K-Ras (G12V) PPI; conc. 5.08E−10", "result": 5044},
      {"measurement": "% signal compared to DMSO", "setting": "biotinylated GST; assay conc. 0.000508053 μM", "result": 101.8, "unit": "%"},
      {"measurement": "% signal compared to DMSO", "setting": "biotinylated GST; assay conc. 0.001524158 μM", "result": 103.1, "unit": "%"},
      {"measurement": "% signal compared to DMSO", "setting": "biotinylated GST; assay conc. 0.004572474 μM", "result": 102.8, "unit": "%"},
      {"measurement": "% signal compared to DMSO", "setting": "biotinylated GST; assay conc. 0.013717421 μM", "result": 101.9, "unit": "%"},
      {"measurement": "% signal compared to DMSO", "setting": "biotinylated GST; assay conc. 0.041152263 μM", "result": 102.1, "unit": "%"},
      {"measurement": "% signal compared to DMSO", "setting": "biotinylated GST; assay conc. 0.12345679 μM", "result": 100.3, "unit": "%"},
      {"measurement": "% signal compared to DMSO", "setting": "biotinylated GST; assay conc. 0.37037037 μM", "result": 100.4, "unit": "%"},
      {"measurement": "% signal compared to DMSO", "setting": "biotinylated GST; assay conc. 1.111111111 μM", "result": 94.53, "unit": "%"},
      {"measurement": "% signal compared to DMSO", "setting": "biotinylated GST; assay conc. 3.333333333 μM", "result": 80.42, "unit": "%"},
      {"measurement": "% signal compared to DMSO", "setting": "biotinylated GST; assay conc. 10 μM", "result": "62.38* %"}
    ]}
  ]
}
